According to ChEMBL document CHEMBL5126544, “Recent results from non-basic glycosidase inhibitors: How structural diversity can inform general strategies for improving inhibition potency” (Eur J Med Chem, 2022):
Converted amounts (≈) assume the structure as drawn.

Columns and labels:
[1] = Inhibition of mammalian alpha-amylase using starch as substrate; parameters: species or system Mammalia
[2] = Inhibition of yeast alpha-glucosidase using p-nitrophenyl-alpha-D-glucopyranoside as substrate preincubated for 5 mins followed by substrate addition measured after 5 mins by microplate reader analysis; parameters: species or system Saccharomyces cerevisiae
[3] = Inhibition of porcine alpha-amylase using starch as substrate preincubated for 10 mins followed by substrate addition and measured after 10 mins by microplate reader analysis; parameters: species or system Sus scrofa
[4] = Inhibition of rat intestinal maltase preincubated for 10 mins followed by substrate addition
[5] = Inhibition of rat intestinal sucrase preincubated for 10 mins followed by substrate addition
[6] = Inhibition of rat intestinal isomaltase preincubated for 10 mins followed by substrate addition
[7] = Inhibition of rat intestinal lactase preincubated for 10 mins followed by substrate addition
[8] = Inhibition of rat intestinal trehalase preincubated for 10 mins followed by substrate addition
[9] = Inhibition of rat intestinal gluco-amylase preincubated for 10 mins followed by substrate addition
[10] = Inhibition of Aspergillus niger maltase preincubated for 10 mins followed by substrate addition
[11] = Inhibition of baker's yeast sucrase preincubated for 10 mins followed by substrate addition; parameters: species or system Saccharomyces cerevisiae

## CC(C)=CCC/C(C)=C/C=O [CITRAL]
[1]
  IC50: 120 µM

## C=C1CC[C@@H]2[C@](C)(CO)[C@H](O)CC[C@@]2(C)[C@@H]1C/C=C1/C(=O)OC[C@H]1O [ANDROGRAPHOLIDE]
[2]
  IC50: 11 mg/mL (≈ 31.4 mM)
[3]
  IC50: 11 mg/mL (≈ 31.4 mM)

## CC1(C)CCC[C@]2(C)c3cc(O)c(O)cc3C(=O)C[C@@H]12
[4]
  IC50: 12 µM
[5]
  IC50: 6.8 µM
[6]
  IC50: 0.85 µM
[7]
  IC50: 20 µM
[8]
  IC50: 30 µM
[9]
  IC50: 1.6 µM
[10]
  IC50: 14 µM
[11]
  IC50: 11 µM
